Results: patent publication US20260328779A1, “METHODS AND COMPOSITIONS FOR THE DIAGNOSIS AND TREATMENT OF IGA NEPHROPATHY” (Beth Israel Deaconess Medical Center, Inc., priority 2022, published 2026)
“Also recorded” adds a separate entry of the source.

Experiments:
anti-Tn IgM = assay: Inhibition of anti-Tn antibody binding to Tn glycopeptide array; design: species or system human; conditions: glycomimetic 20 mM, 30 min at RT, anti-Tn antibodies C3
Protocol: The Tn glycopeptide microarray was prepared as previously described^77. Briefly, the glycopeptides printed on the microarray is as listed (FIG. 2). Purified anti-Tn antibodies (diluted to […] for IgM, and […] for IgG and IgA detection) in TSM binding buffer (20 mM Tris-HCl, pH 7.4, 150 mM NaCl, 2 mM CaCl2), 2 mM MgCl2, with 1% BSA and 0.05% Tween-20) were added to the respective array slides for 1 h at RT. Alexa Fluor #488-labeled goat anti-human IgM or goat anti-human IgG, or FITC-labeled goat anti-human IgA antibody at 1:400 dilution in TSM binding buffer was used for detection of IgM, IgG, and IgA within purified anti-Tn antibodies. Slides were analyzed on a Genepix^# 4300A microarray scanner (Molecular Devices). Images were analyzed with quantitation software (GenePix® Pro Microarray Analysis Software Ver. 7, Molecular Devices). For inhibition assay, a purified Tn(+)IgA1 produced from CosmcKO Dakiki cells was utilized (See Generation of CosmcKO Dakiki cells using CRISPR-Cas9 system for generating the antibody) to inhibit anti-Tn antibodies binding to microarray and Tn(−)IgA1 produced from Dakiki cells as a […]. Purified anti-Tn antibodies (Cl, 10 mg/ml) in TSM binding buffer was preincubated with 1 mg of purified Tn(+)IgA1, or Tn(−)IgA1 for 30 min at RT. […] Heat map and correlation map of binding preferences were analyzed using GLAD (Glycan Array Dashboard).

[1] = tested on: primary human renal mesangial cells; assay: Inhibition of anti-Tn CICs-stimulated mesangial cell proliferation (Ki-67); format: cell-based; conditions: 30 min at RT
Protocol: […] of serum was mixed with […] of Tn(+)matrix beads or mock beads overnight at 4° C. (10 rpm). Supernatant was collected after pelleting the beads at 500×g for 30 sec at 4° C. After two rounds of such sequential anti-Tn CICs immunodepletion (serum-ID) and its control (serum-Mock), collected serum was filtered by syringe filter unit (Cat #SLHP033RS, Millipore Sigma) before use. Cells were cultured at ~90% confluency in 96-well plate, and starved in Mesangial cell media (Cat #4201) with 0.5% FBS (Cat #0010) and 0.05× mesangial cell growth supplement (MsCGS, Cat #4252) from ScienCell for 24 h at 37° C. prior to stimulation. Cells were stimulated with 5% serum-Mock, 5% serum-ID with or without exogenous anti-Tn CICs (50 ng/[…]/well, total) for 24 h at 37° C. incubator. Cells were fixed with 4% PFA with 0.05% Triton-X-100 in PBS for 20 min at 4° C. Fixed cells were blocked with 5% (vol/vol) goat serum in PBS for 1 h at 4° C., and incubated with anti-Ki-67 antibody (SP6, rabbit IgG, Cat #CRM325B, Biocare Medical, diluted to 1:50) in PBS for 1 h at 4° C. Cells were washed 3× with chilled PBS, and incubated with Alexa Fluor #488-goat anti-rabbit IgG (Cat #A27034, Thermo Fisher Scientific) at 1:400 in PBS for 1 h at 4° C. in the dark. Cells were washed 3× with chilled PBS, and stained with DAPI (diluted to 0.1 mM) in PBS for 10 min at RT, and analyzed using a microscope (AMG EVOS FL digital inverted microscope, Fisher Scientific, ×400 magnification). For inhibition assay, anti-Tn CICs was preincubated with 100 mM α-methylGalNAc, or α-methylGlcNAc in PBS for 30 min at RT. Serum from three healthy controls (C3, C6, and pooled C1-C10; Cmix) and three IgAN (P5, P10, and pooled P1-P10; Pmix) were used in this assay. […] of serum with IgAN (P1-P20) or healthy control (C1-C20) was analyzed on SDS-PAGE gel, and stained with Coomassie.

**Q.** Which “inhibition of anti-Tn antibody (IgM) binding to Tn glycopeptide array” value (anti-Tn IgM) does the source give for `CO[C@H]1O[C@H](CO)[C@H](O)[C@H](O)[C@H]1NC(C)=O` [α-methylGalNAc] here?
**A.** Its value is “specifically inhibited binding of the anti-Tn IgM”.

**Q.** And the “inhibition of proliferative activity of anti-Tn CICs from IgAN patients toward mesangial cells” value ([1]; anti-Tn CICs purified from IgAN patients pretreated with 100 mM compound)?
**A.** The value was “inhibits their proliferative activity toward mesangial cells; also recorded: failed to stimulate human renal mesangial cells”.

**Q.** What about the “inhibition of proliferative activity of anti-Tn CICs from healthy control sera toward mesangial cells” value ([1]; anti-Tn CICs purified from healthy control pretreated with 100 mM compound) of the same compound?
**A.** Its value is “did not significantly inhibit mesangial cell proliferation”.
